In patent US12371454B2, “Cyclic peptide compound having Kras inhibitory action” (priority 2019, dated 2025) one finds IC50 data, which are given here for 13 compounds.

Usually IC50 stands for the concentration that gives 50% inhibition.

Starred links: 1 amine or outer side, 2 acyl side, 3 side chain; linkers in the order of their positions; H or OH if unused. Positions of bridges follow the written chain, without caps; N, C: chain ends. Non-standard residues stand in square brackets, D forms with d. Residues, ends and D or L forms follow the SMILES beside them. *: point of attachment. hPhe(3-Cl-4-CF3) = N[C@@H](CCc1ccc(C(F)(F)F)c(Cl)c1)C(=O)O; hPhe(3-F,4-CF3) = N[C@@H](CCc1ccc(C(F)(F)F)c(F)c1)C(=O)O; NMePhe(4-CF3) = CN[C@@H](Cc1ccc(C(F)(F)F)cc1)C(=O)O; hPhe(4-CF3) = N[C@@H](CCc1ccc(C(F)(F)F)cc1)C(=O)O; NMeTyr(3-F) = CN[C@@H](Cc1ccc(O)c(F)c1)C(=O)O; NMeAbu(4,4,4-F3) = CN[C@@H](CC(F)(F)F)C(=O)O; NMePhe(4-Cl) = CN[C@@H](Cc1ccc(Cl)cc1)C(=O)O; NMePhe(4-Me) = CN[C@@H](Cc1ccc(C)cc1)C(=O)O; NMePhe(2-Cl) = CN[C@@H](Cc1ccccc1Cl)C(=O)O; Abu(4,4,4-F3) = N[C@@H](CC(F)(F)F)C(=O)O; X22 = O=C([C@@H]1Cc2ccccc2N1[*:1])[*:2]; X79 = CC(C)CCOC[C@H](CC(=O)[*:2])N[*:1]; NMeGly(cPent) = CN[C@H](C(=O)O)C1CCCC1; Phe(3-I) = N[C@@H](Cc1cccc(I)c1)C(=O)O; Phe(4-F) = N[C@@H](Cc1ccc(F)cc1)C(=O)O; Pro(4,4-F2) = O=C(O)[C@@H]1CC(F)(F)CN1; NMeCha = CN[C@@H](CC1CCCCC1)C(=O)O; Azetidine(3,3-F2) = FC1(F)CN(*)C1; NMeChg = CN[C@H](C(=O)O)C1CCCCC1; N(CH2CH2)2CF2 = FC1(F)CCN(*)CC1; NMeD = CN[C@@H](CC(=O)O)C(=O)O; CH2CONHtBu = CC(C)(C)NC(=O)C*; NMeL = CN[C@@H](CC(C)C)C(=O)O; NMeV = CN[C@H](C(=O)O)C(C)C; d(β3hA) = C[C@@H](N)CC(=O)O; NMeS = CN[C@@H](CO)C(=O)O; Morpholide = C1CN(*)CCO1; NMeA = CN[C@@H](C)C(=O)O; NMeAib = CNC(C)(C)C(=O)O; Piperidide = C1CCN(*)CC1; Pyrrolidide = C1CCN(*)C1; Ac5c = NC1(C(=O)O)CCCC1; Aze = O=C(O)[C@@H]1CCN1; Ac3c = NC1(C(=O)O)CC1; Aib = CC(C)(N)C(=O)O; Sar = CNCC(=O)O

The target of the assay is T1, Kras and SOS1 (biotin-tagged human Kras loaded with GDP, His-tagged human SOS1) (Homo sapiens, UniProt P01116, G12D).
T1 construct: made in house; host or cells: E. coli (stated for Kras only)
T1 sequence (P01116 1-188 isoform P01116-2 G12D): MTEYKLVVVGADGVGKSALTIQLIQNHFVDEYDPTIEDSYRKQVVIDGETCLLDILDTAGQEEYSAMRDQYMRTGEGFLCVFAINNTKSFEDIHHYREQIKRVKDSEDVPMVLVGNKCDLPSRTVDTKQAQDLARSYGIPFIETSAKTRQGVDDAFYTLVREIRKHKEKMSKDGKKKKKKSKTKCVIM
The assay can be described thus: Protein-protein interaction inhibition between Kras and SOS1 (KrasGl2D-SOS PPI) using AlphaScreen. The settings on record: AlphaScreen; biotin-tagged human Kras loaded with GDP, His-tagged human SOS1; read-out: KRAS G12D-SOS PPI IC50. It counts as binding. In a few lines: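 Binding between SOS1 and Kras is detected as bead-proximity luminescence: illuminate Ni-conjugated donors (680 nm), collect 520-620 nm emission from streptavidin-conjugated acceptors; Kras carries biotin and GDP loaded after purification, SOS1 carries a His tag.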
(In general: Bead proximity is the source of the signal in Alpha formats.)
For `CC[C@H](C)[C@@H]1NC(=O)[C@H](CC(C)C)N(C)C(=O)C[C@@H](C(=O)N2CCCCC2)N(C)C(=O)[C@H](C(C)C)N(C)C(=O)C(C)(C)NC(=O)[C@@H]2CCCN2C(=O)[C@H](CCc2ccc(C(F)(F)F)c(F)c2)NC(=O)CN(C)C(=O)[C@H](CC2CCCCC2)N(C)C(=O)CN(C)C(=O)CN(C)C1=O` [Compound 522] ([NMeL]I[Sar][Sar][NMeCha][Sar][hPhe(3-F,4-CF3)]P[Aib][NMeV][NMeD]-Piperidide; lactam N-11), the concentration for half-maximal inhibition (IC50) turned out to be 0.0053 µM. For `CC[C@H](C)[C@@H]1NC(=O)[C@H](CC(C)C)N(C)C(=O)C[C@@H](C)NC(=O)[C@H](C(C)C)N(C)C(=O)C2(CC2)NC(=O)[C@@H]2CCCN2C(=O)[C@H](CCc2ccc(C(F)(F)F)c(Cl)c2)NC(=O)CN(C)C(=O)[C@H](CC2CCCCC2)N(C)C(=O)CN(C)C(=O)CN(C)C1=O` [Compound 1111] (cyclo([Ac3c][NMeV][d(β3hA)][NMeL]I[Sar][Sar][NMeCha][Sar][hPhe(3-Cl-4-CF3)]P)), the IC50 was determined as 0.041 µM.

With `CC[C@H](C)[C@@H]1NC(=O)[C@H](CC(C)C)N(C)C(=O)C[C@@H](C(=O)N2CCCCC2)N(C)C(=O)[C@H](C2CCCCC2)N(C)C(=O)C2(CCCC2)NC(=O)[C@@H]2Cc3ccccc3N2C(=O)[C@H](CCc2ccc(C(F)(F)F)c(Cl)c2)NC(=O)CN(C)C(=O)[C@H](CC2CCCCC2)N(C)C(=O)CN(C)C(=O)CN(C)C1=O` [Compound 514] ([NMeL]I[Sar][Sar][NMeCha][Sar][hPhe(3-Cl-4-CF3)][X22][Ac5c][NMeChg][NMeD]-Piperidide; lactam N-11), the IC50 came out at 0.014 µM. For the compound `CC[C@H](C)[C@@H]1NC(=O)[C@H](C)N(C)C(=O)C[C@@H](C(=O)N2CCCCC2)N(C)C(=O)[C@H](C(C)C)N(C)C(=O)C2(CCCC2)NC(=O)[C@@H]2CCCN2C(=O)[C@H](CCc2ccc(C(F)(F)F)c(Cl)c2)NC(=O)[C@H]2CCCN2C(=O)[C@H](CC2CCCCC2)N(C)C(=O)[C@@H]2CCN2C(=O)CN(C)C1=O` [Compound 447] ([NMeA]I[Sar][Aze][NMeCha][dP][hPhe(3-Cl-4-CF3)]P[Ac5c][NMeV][NMeD]-Piperidide; lactam N-11), the IC50 was 0.014 µM. In the case of `CC[C@H](C)[C@@H]1NC(=O)[C@H](CC(C)C)N(C)C(=O)C[C@@H](C)NC(=O)[C@H](C(C)C)N(C)C(=O)C2(CCCC2)NC(=O)[C@@H]2CCCN2C(=O)[C@H](CCc2ccc(C(F)(F)F)c(Cl)c2)NC(=O)CN(C)C(=O)[C@H](Cc2ccccc2Cl)N(C)C(=O)CN(C)C(=O)CN(C)C1=O` [Compound 1591] (cyclo([Ac5c][NMeV][d(β3hA)][NMeL]I[Sar][Sar][NMePhe(2-Cl)][Sar][hPhe(3-Cl-4-CF3)]P)), the IC50 came to 0.097 µM. Consider `CC[C@H](C)[C@@H]1NC(=O)[C@H](CC(C)C)N(C)C(=O)C[C@@H](COCCC(C)C)NC(=O)[C@H](C(C)C)N(C)C(=O)C2(CCCC2)NC(=O)[C@@H]2CCCN2C(=O)[C@H](CCc2ccc(C(F)(F)F)c(Cl)c2)NC(=O)CN(C)C(=O)[C@H](CC2CCCCC2)N(C)C(=O)CN(C)C(=O)CN(C)C1=O` [Compound 992] (cyclo([Ac5c][NMeV][X79][NMeL]I[Sar][Sar][NMeCha][Sar][hPhe(3-Cl-4-CF3)]P)), for which the IC50 is 0.18 µM. With `CC[C@H](C)[C@@H]1NC(=O)[C@H](CC(C)C)N(C)C(=O)C[C@@H](C)NC(=O)[C@H](C)N(C)C(=O)C2(CCCC2)NC(=O)[C@@H]2CCCN2C(=O)[C@H](CCc2ccc(C(F)(F)F)c(Cl)c2)NC(=O)CN(C)C(=O)[C@H](Cc2ccc(C)cc2)N(C)C(=O)[C@@H]2CCN2C(=O)[C@H](C)N(C)C1=O` [Compound 1239] (cyclo([Ac5c][NMeA][d(β3hA)][NMeL]I[NMeA][Aze][NMePhe(4-Me)][Sar][hPhe(3-Cl-4-CF3)]P)), the IC50 was determined as 0.18 µM.

For `CC[C@H](C)[C@@H]1NC(=O)[C@H](C)N(C)C(=O)C[C@@H](C(=O)N2CCCCC2)N(C)C(=O)[C@H](C(C)C)N(C)C(=O)[C@H](CC(F)(F)F)NC(=O)[C@H](CC(=O)N2CC(F)(F)C2)N(C)C(=O)[C@H](CCc2ccc(C(F)(F)F)c(Cl)c2)NC(=O)CN(C)C(=O)[C@H](CC2CCCCC2)N(C)C(=O)CN(C)C(=O)CN(C)C1=O` [Compound 679] ([NMeA]I[Sar][Sar][NMeCha][Sar][hPhe(3-Cl-4-CF3)][NMeD](Azetidine(3,3-F2))[Abu(4,4,4-F3)][NMeV][NMeD]-Piperidide; lactam N-11), the IC50 worked out at 0.037 µM. Next, `CC[C@H](C)[C@@H]1NC(=O)[C@H](C)N(C)C(=O)C[C@@H](C(=O)N2CCCC2)NC(=O)[C@H](CC(C)C)N(C)C(=O)[C@H](COCC(=O)NC(C)(C)C)N(C)C(=O)[C@H](CC(C)C)NC(=O)[C@H](CCc2ccc(C(F)(F)F)cc2)NC(=O)CN(C)C(=O)[C@H](Cc2ccc(Cl)cc2)N(C)C(=O)CN(C)C(=O)CN(C)C1=O` [Compound 889] ([NMeA]I[Sar][Sar][NMePhe(4-Cl)][Sar][hPhe(4-CF3)]L[NMeS](CH2CONHtBu)[NMeL]D-Pyrrolidide; lactam N-11): 0.07 µM; `CC[C@H](C)[C@@H]1NC(=O)[C@H](CC(C)C)N(C)C(=O)C[C@@H](C(=O)N2CCCCC2)N(C)C(=O)[C@H](CC(C)C)NC(=O)C(C)(C)N(C)C(=O)[C@H](Cc2ccc(F)cc2)NC(=O)[C@H](Cc2cccc(I)c2)NC(=O)CN(C)C(=O)[C@H](CC2CCCCC2)N(C)C(=O)CN(C)C(=O)CN(C)C1=O` [Compound 711] ([NMeL]I[Sar][Sar][NMeCha][Sar][Phe(3-I)][Phe(4-F)][NMeAib]L[NMeD]-Piperidide; lactam N-11): 0.035 µM; `CC[C@H](C)[C@@H]1NC(=O)[C@H](CC(F)(F)F)N(C)C(=O)C[C@@H](C(=O)N2CCCC2)N(C)C(=O)[C@H](C2CCCCC2)N(C)C(=O)C2(CCCC2)NC(=O)[C@@H]2CC(F)(F)CN2C(=O)[C@H](CCc2ccc(C(F)(F)F)c(Cl)c2)NC(=O)CN(C)C(=O)[C@H](Cc2ccc(C(F)(F)F)cc2)N(C)C(=O)CN(C)C(=O)CN(C)C1=O` [Compound 1196] ([NMeAbu(4,4,4-F3)]I[Sar][Sar][NMePhe(4-CF3)][Sar][hPhe(3-Cl-4-CF3)][Pro(4,4-F2)][Ac5c][NMeChg][NMeD]-Pyrrolidide; lactam N-11): 0.00048 µM. Regarding `CC[C@H](C)[C@@H]1NC(=O)[C@H](CC(C)C)N(C)C(=O)C[C@@H](C(=O)N2CCOCC2)N(C)C(=O)[C@H](C2CCCC2)N(C)C(=O)C2(CCCC2)NC(=O)[C@H](CC(=O)N2CCC(F)(F)CC2)N(C)C(=O)[C@H](CCc2ccc(C(F)(F)F)c(Cl)c2)NC(=O)CN(C)C(=O)[C@H](CC2CCCCC2)N(C)C(=O)[C@@H]2CCN2C(=O)[C@H](C)N(C)C1=O` [Compound 105] ([NMeL]I[NMeA][Aze][NMeCha][Sar][hPhe(3-Cl-4-CF3)][NMeD](N(CH2CH2)2CF2)[Ac5c][NMeGly(cPent)][NMeD]-Morpholide; lactam N-11), the IC50 is 0.0053 µM.

Consider `CC[C@H](C)[C@@H]1NC(=O)[C@H](CC(C)C)N(C)C(=O)C[C@@H](C(=O)N2CCCCC2)N(C)C(=O)[C@H](C2CCCCC2)N(C)C(=O)C2(CCCC2)NC(=O)[C@H](Cc2ccc(O)c(F)c2)N(C)C(=O)[C@H](CCc2ccc(C(F)(F)F)c(Cl)c2)NC(=O)CN(C)C(=O)[C@H](CC2CCCCC2)N(C)C(=O)CN(C)C(=O)CN(C)C1=O` [Compound 2170] ([NMeL]I[Sar][Sar][NMeCha][Sar][hPhe(3-Cl-4-CF3)][NMeTyr(3-F)][Ac5c][NMeChg][NMeD]-Piperidide; lactam N-11), for which the IC50 came out at 0.069 µM.
